Experimental data taken from paper PMC9767416, “Discovery of small molecule mechanistic target of rapamycin inhibitors as anti-aging and anti-cancer therapeutics” (Frontiers in Aging Neuroscience, 2022).

Legend:
Assay type in all cases: cell-based, human
[1] = system: RPE-1 cells; assay: Time-lapse microscopy (Incucyte) of proliferating RPE-1; details: 0, 10, 50, 80, 100 μM, 72 h
Description: (§1) For auto-monitoring of cells, Incucyte SX1 Live-Cell Analysis System (Sartorius, Göttingen, Germany), located in an incubator maintained at 37°C under a 5% CO2 atmosphere and 95% humidity, was utilized. The images (1,408 × 1,040 pixels at 1.24 microns/pixel) were acquired using a 10× objective lens in phase contrast, red fluorescence (excitation: 585 ± 20 nm, emission: 635 [625, 705] nm, acquisition time: 100 ms) channels every 60 min during 72 h. The first image was acquired 30 min after adding compounds. The images were processed to measure cell confluence using Incucyte software (version 2022A). Annexin V – Dy647, Apronex (diluted 1:1,000) was used for apoptotic cell staining.

[2] = system: U87 cells; assay: Time-lapse microscopy with annexin V staining of proliferating U87
Description: as §1

[3] = system: IR-induced senescent RPE-1 cells; assay: Crystal violet and resazurin assays in IR-induced senescent RPE-1
Description: (§2) To obtain ionizing radiation (IR)-induced senescent cells, proliferating RPE-1 cells were exposed to a single dose of X-rays (20 Gy) using Pantak HF160 (Gulmay, Surrey, UK) X-ray instrument equipped with Pantak Seifert HF320 generator, MXR-161 X-ray tube (Comet AG, Flamatt, Switzerland), and an aluminum filter using current 1–10 mA. After irradiation, the cells were cultured for an additional 7 days until the development of the senescent phenotype ([Salovska et al., 2022]). To induce docetaxel-induced senescence (DIS), BJ cells were exposed to 5 nM docetaxel for 7 days, as described previously ([Sapega et al., 2018]). To prepare temozolomide (TMZ)-induced senescence, U87 cells were exposed to 100 μM TMZ for 14 days.
(§3) Twenty-four hours before treatment, cells were plated in 96-well plates at densities of 2,850 cells per well for senescent RPE-1 (IR-RPE-1), 3,350 cells per well for proliferating RPE-1 and senescent BJ (DIS-BJ), and 5,000 cells per well for U373, T98, A172, U87, TMZ-U87, and proliferating BJ cells.
(§4) For the crystal violet assay, the cells were washed twice with 150 μL PBS and stained with 30 μL 0.5% (w/v) crystal violet in 20% methanol for 15 mins. Next, the plates were washed five times with ddH2O and left to dry overnight. Crystal violet was solubilized with 75 μL 0.2% Triton X-100 (Sigma) in PBS for 15 mins. The absorbance was read at 595 nm using a microplate reader (Envision, PerkinElmer, Waltham, MA, USA). The absorbance of crystal violet in treated cells was expressed as a percentage of absorbance in untreated cells. Each condition was measured at least in triplicate.
(§5) For the resazurin assay, 200 μL of the culture medium of each well was exchanged for 100 μL of resazurin (stock solution 30 mg/mL; Sigma, St. Louis, MO, USA) diluted 10 times in the culture medium, and the cells were incubated at 37°C for 1–3 h. Reading of fluorescence was done using a microplate reader (PerkinElmer, Waltham, MA, USA). Absolute values of fluorescence were related to the values of untreated cells. Each condition was measured at least in triplicate. […]

[4] = system: mTORC2 substrate AKT (Ser473 phosphorylation); assay: Immunoblot of phospho-AKT (Ser473), mTORC2 activity in cells; details: 100 μM; for AKT phosphorylation relative to control cells: after 5 h
Source text: For immunoblotting, the following primary and secondary antibodies were used: rabbit polyclonal p70 S6 kinase (#9202), rabbit monoclonal phospho-p70 S6 kinase (Thr389) ([…]), rabbit monoclonal AKT kinase (#4691), rabbit monoclonal phospho-AKT kinase (Ser473) ([…]) obtained from Cell Signaling Technology, Inc., Danvers MA, USA; p21waf1 (sc-56335) obtained from Santa Cruz Biotechnology, Inc., Dallas, TX, USA and mouse monoclonal anti-GAPDH (GTX3066) purchased from GeneTex, Inc., Irvine, CA, USA; goat anti-mouse (170-6516) or anti-rabbit IgG (H + L)-HRP conjugate (170-6515) purchased from BioRad, Hercules, CA, USA.
Cells were harvested 1 and 5 h after treatment. Cells were washed with PBS, harvested into SDS sample lysis buffer (SLB; 2% SDS, 63 mM Tris–HCl, pH 6.8, and 10% glycerol), sonicated, and centrifuged. Protein concentration was determined by BCA assay (Pierce Biotechnology, Rockford, IL, USA); samples were adjusted to equal protein amount (40 μg) with SLB containing dithiothreitol (1% final conc.) and bromophenol blue (0.02% final conc.), and separated by SDS–PAGE in Tris-glycine-SDS buffer (BioRad, 1610772). Proteins were electrotransferred onto a nitrocellulose membrane (0.45 μm NC, Amersham™, GE Healthcare Life Sciences) using wet transfer in Tris-glycine buffer (BioRad, 1810704) with 10% methanol (Sigma, 59304). After blocking with 5% non-fat milk in PBS/Tween-20, proteins were detected using specific antibodies and horseradish peroxidase (HRP)-conjugated secondary antibodies. Peroxidase activity was detected by ECL detection reagents (Thermo Fisher Scientific, Waltham, MA, USA).
BJ, RPE-1, U87, U373, T98, A172, MDA-MB-231, H1299, and DU-145 cells were exposed to compound 3 (100 μM) for 1 and 5 h and the level of AKT serine 473 (Ser473) phosphorylation was assayed by immunoblotting. […] However, in several cell types (BJ, RPE-1, MDA-MB-231, H1299, and DU-145), the AKT phosphorylation was higher after 5 h of exposure than in control cells (Figure 11).

[5] = system: glioblastoma T98, A172 and U87 cells; assay: Crystal violet and resazurin assays in further glioblastoma lines; details: 0–100 μM, 24 h
Description: as §3, §4
For the resazurin assay, 200 μL of the culture medium of each well was exchanged for 100 μL of resazurin (stock solution 30 mg/mL; Sigma, St. Louis, MO, USA) diluted 10 times in the culture medium, and the cells were incubated at 37°C for 1–3 h. Reading of fluorescence was done using a microplate reader (PerkinElmer, Waltham, MA, USA). Absolute values of fluorescence were related to the values of untreated cells. Each condition was measured at least in triplicate.

[6] = system: docetaxel (DTX)-induced senescent BJ cells; assay: Crystal violet and resazurin assays in docetaxel-induced senescent BJ
Description: as §2, with “To prepare temozolomide (TMZ)-induced senescence, U87 cells were exposed to 100 μM TMZ for 14 days.” left out
as §4, with “Next, the plates were washed five times with ddH2O and left to dry overnight. Crystal violet was solubilized with 75 μL 0.2% Triton X-100 (Sigma) in PBS for 15 mins.” left out
as §5, with “USA).” for “USA). Absolute values of fluorescence were related to the values of untreated cells. Each condition was measured at least in triplicate.”

Q: For `Nc1ccc(C(=O)Nc2cccc(-c3c[nH]c4ncccc34)c2)cc1O` [Compound 3, N-(3-(1H-pyrrolo[2,3-b]pyridin-3-yl)phenyl)-4-amino-3-hydroxybenzamide], which “effect on cell proliferation (cell confluence, time-lapse)” value [1] is on record?
A: The value was “showed the effect on RPE-1 cell proliferation”.

Q: And the “cell phenotype in time-lapse microscopy” value ([2]; proliferating U87, 100 μM, 72 h)?
A: The value was “rapid loss of cell spreading with a lack of mitotic activity and progressively occurring cell death”.

Q: What about the “induction of apoptosis (annexin V staining)” value ([2]; time-lapse microscopy 72 h, 0–100 μM, Figure 5G) of the same compound?
A: Its value is “confirmed”.

Q: What about the “selectivity for senescent versus proliferating cells” value ([3]; IR-RPE-1 vs proliferating RPE-1, crystal violet and resazurin) of the same compound?
A: Its value is “non-selective manner”.

Q: What about the “sensitivity of senescent cells (crystal violet and resazurin)” value ([3]; IR-induced senescent RPE-1, 0–100 μM, 24 h) of the same compound?
A: Its value is “significantly sensitive”.

Q: And the “effect on Ser473 AKT phosphorylation” value ([4]; A172, after 1 h)?
A: The value was “Transient inhibition”.

Q: And the “effect on Ser473 AKT phosphorylation” value ([4]; BJ, after 1 h)?
A: The value was “Transient inhibition”.

Q: And the “AKT phosphorylation relative to control cells” value ([4]; BJ)?
A: Its value is “higher”.

Q: What about the “effect on Ser473 AKT phosphorylation” value ([4]; DU-145, after 1 h) of the same compound?
A: The value was “Transient inhibition”.

Q: And the “AKT phosphorylation relative to control cells” value ([4]; DU-145)?
A: Its value is “higher”.

Q: And the “effect on Ser473 AKT phosphorylation” value ([4]; H1299, after 1 h)?
A: Its value is “Transient inhibition”.

Q: And the “AKT phosphorylation relative to control cells” value ([4]; H1299)?
A: The value was “higher”.

Q: What about the “effect on Ser473 AKT phosphorylation” value ([4]; MDA-MB-231, after 1 h) of the same compound?
A: Its value is “Transient inhibition”.

Q: And the “AKT phosphorylation relative to control cells” value ([4]; MDA-MB-231)?
A: The value was “higher”.

Q: What about the “effect on Ser473 AKT phosphorylation” value ([4]; RPE-1, after 1 h) of the same compound?
A: The value was “Transient inhibition”.

Q: What about the “AKT phosphorylation relative to control cells” value ([4]; RPE-1) of the same compound?
A: Its value is “higher”.

Q: And the “effect on Ser473 AKT phosphorylation” value ([4]; T98, after 1 h)?
A: The value was “Transient inhibition”.

Q: What about the “rank of the inhibitory effect on Ser473 AKT phosphorylation among cell lines” value ([4]; T98, after 1 h, inhibitory level kept after 5 h) of the same compound?
A: Its value is “most potent inhibitory effect”.

Q: What about the “effect on Ser473 AKT phosphorylation” value ([4]; U87, after 1 h) of the same compound?
A: Its value is “Transient inhibition”.

Q: And the “effect on Ser473 AKT phosphorylation” value ([4]; U373, after 1 h)?
A: Its value is “Transient inhibition”.

Q: And the “effect in crystal violet and resazurin assays” value [5]?
A: The value was “significantly affected”.

Q: And the “selectivity for senescent versus proliferating cells” value ([6]; DIS-BJ vs proliferating BJ, crystal violet and resazurin)?
A: The value was “non-selective manner”.

Q: And the “sensitivity of senescent cells (crystal violet and resazurin)” value ([6]; DTX-induced senescent BJ, 0–100 μM, 24 h)?
A: The value was “significantly sensitive”.
